# Measured values as given in patent US6936285B1, “Use of Ginkgo biloba extracts for preparing a medicine” (Societe de Conseils de Recherches d'Application …, priority 1997, dated 2005).
# Test system: rats
# Test: Behavioural sensitization to amphetamine (motor hyperactivity measured by actimetry)
# Conditions: amphetamine 0.5 mg/kg IP, ginkgolide A 5 mg/kg per day oral
compound,measurement,value
C[C@@H]1C(=O)O[C@H]2C[C@@]34[C@H]5C[C@@H](C(C)(C)C)[C@]36[C@@H](OC(=O)[C@@H]6O)O[C@@]4(C(=O)O5)[C@]21O [ginkgolide A],behavioural sensitization to amphetamine,reduced
